pIC50: −log10 of the molar value. Read-outs that look alike come from different tables or passages of the source.
Assays:
[1] = system: MYC expression in L363 cells; assay: Gene expression analysis (Nanostring, qPCR), MYC; assay type: cell-based, human; details: L363 cells, 48 hours; 10 μM BRACO-19, 10 μM Compound 1, 7.5 μM Compound 23
Method: (§1) Gene expression analysis was performed on a panel of 770 cancer-associated genes in a multiplexed (nanostring) transcriptional assay. In addition to c-MYC itself, several c-Myc target genes were included in the panel, as were a number of other quadruplex-driven genes. […] Additionally, a third data set was collected comparing Compound 1 treatment to JQ-1 (a BET-bromodomain inhibitor) and quarfloxin (another quadruplex-binding small molecule).
(§2) The effects of Compound 1 on a number of known quadruplex-driven genes in the panel were examined further (FIG. 6). Expression levels of MYC, RB1, VEGFA, KRAS, and HIF1α, all of which are reported to be under the control of promoter G4s, and are expressed in L363 cells, were included in the panel of genes evaluated by Nanostring as discussed above. […] These changes in gene expression are in line with biophysical measurements of compound affinity. Corresponding data showing similar results is presented for Compounds 1 and 23 in FIGS. 14A and 14B. […] These observations further highlight the ability of Compound 1 and Compound 23 to specifically target the expression of c-Myc and related pathways.
(§3) The phenotype for c-MYC genetic knockdown in multiple myeloma was achieved through lentiviral transduction of shRNA for c-MYC, derived from the spinoculation of 293T cells and plasmids grown in STBL3 E. coli, and isolated with the Qiagen Plasmid Midi Kit. Aliquots of the plasmids were generously provided by Art Shaffer. RNA of treated myeloma cells at designated time points was isolated with the Qiagen RNeasy kit, and used with the nCounter Human Cancer Reference Kit (NanoString Technologies), surveying changes in expression for […] cancer-related human genes and 6 reference genes. Quantitative changes in expression were analyzed and grouped in the form of a heat map using the programming language, R. All other quantitative statistical packing was performed in GraphPad Prism.

[2] = system: RB1, VEGFA, KRAS, HIF1α, BCL2 expression in L363 cells; assay: Gene expression analysis (Nanostring, qPCR), other G4-associated genes; assay type: cell-based, human; details: L363 cells, 48 hours; 10 μM BRACO-19, 10 μM Compound 1, 7.5 μM Compound 23
Method: as §1, §2, §3

L363 cells = assay: L363 cell viability (MTS); assay type: cell-based, human; details: for viability at 10 µM: L-363, L363 cells; for pIC50: read-out: IC50
Method: Since two thirds of multiple myeloma cases involve deregulated c-MYC expression (Kuehl and Bergsagel, Blood 2012, 120, 2351; Shou, et al., Proc Natl Acad Sci USA 2000, 97, 228), we elected to evaluate the cell viability effects of Compound 1 in a multiple myeloma model. […] This suppression was maintained over 72 hours, which is notable given the characteristic rapid replenishment of the protein—a phenomenon that complicates targeting c-Myc at the protein level (FIG. 4C). This effect was maintained across a genetically diverse set of 4 multiple myeloma lines. We observed decreases in c-MYC translation in all lines tested, and this effect also correlated with decreases in viability (FIG. 4D).
Human multiple myeloma and Burkitt's Lymphoma cell lines L363, CA46, MM-1R, KMS-11, and MM-1S were cultured and authenticated as previously described (Simmons, et al., Molecular oncology 2014, 8, 261). All plasma derived cell lines were cultured in RPMI-1640 (2 mM L-glutamine, 10% fetal bovine serum (FBS), 100 U/ml penicillin, 100 μg/ml streptomycin: Gibco) and incubated at 37° C. with 5% CO2. Viability experiments were performed in quadruplicate on 96-well plates (Costar) at designated time and dose points. MTS reagent was then directly added, incubated at 37° C. for 90 min, and absorbance of MTS formazan was read at 500 nm on an Omega 640 spectrophotometer. Percentage cell viability was normalized to the absorbance of untreated (DMSO) wells. In the case of cells harvested for their protein or RNA, pellets were flash frozen and stored at −80° C. overnight prior to use. […]

[3] = system: c-MYC expression in L363 cells; assay: Inhibition of c-MYC expression in L363 cells (Peggy); assay type: cell-based, human; details: for Peggy (% c-Myc expression compared to untreated): L363 cells; for activity at 10 µM / Peggy (% c-Myc expression compared to untreated): at 10 μM
Excerpt: FIG. 10 illustrates an exemplary procedure for generating analogs of Compound 1. The amine group of Compound 1 can be varied in reductive aminations to provide additional analogs. […] The table also provides an indication of an exemplary commercial source for the compounds, or (if applicable) an indication that the compound is new.

[4] = system: c-MYC G4 DNA (biotin-labeled Pu22 G-quadruplex); assay: Surface plasmon resonance (SPR); assay type: binding; details: same experiment as Compound 1
Method: In order to quantitatively assess the binding affinity of Compound 1 with the c-MYC G4, surface plasmon resonance (SPR) experiments (De Crescenzo, et al., Cell Mol Bioeng 2008, 1, 204) were performed using a biotinylated c-MYC G4 oligonucleotide. The oligonucleotide was immobilized to a streptavidin-coated chip, and binding was measured as a function of concentration. (FIG. 2). […] Furthermore, Compound 1 interacts with quadruplex DNA through a reversible binding interaction, and rapid, complete dissociation can be observed in the sensogram (FIG. 2C).
SPR experiments were performed with a Biacore T200 (GE Healthcare). […] The c-MYC DNA was then captured (FC2: 1245 Ru) on a Series S Sensor CM5 Chip (GE Healthcare) with amine-coupled Neutravidin (FC1: 4466 Ru, FC2: 5458 Ru). Single Cycle Kinetics (SCK) experiments were carried out with five injections of increasing concentration of analyte solution, which was prepared by a three-fold serial dilution of compound with buffer (10 mM Tris pH 7.5, 100 mM KCl, 3 mM EDTA) containing 3% DMSO. Binding analysis was conducted at a flow rate of 30 μL/min at 25° C. In each run, the association phase and the subsequent dissociation phase were monitored for 1 min and 10 min, respectively. Prior to each compound injection, three buffer injections were made. […]

[5] = Homo sapiens, L-363, L363 cells, read-out: Peggy (% c-Myc expression compared to untreated)
[6] = Homo sapiens, L-363, viability of L363 cells

CN(C)c1ccc(Nc2c3ccc(NC(=O)CCN4CCCC4)cc3nc3cc(NC(=O)CCN4CCCC4)ccc23)cc1 [BRACO-19, reference compound]
c-Myc expression (qPCR) [1]: reduced c-Myc expression | expression of other G-quadruplex containing genes (qPCR) [2]: minimally affecting expression of other G-quadruplex containing genes

Cc1ccc(NC(=O)c2c(C)oc3ccc(O)c(CN4CCN(C)CC4)c23)cc1 [Compound 2]
viability at 10 µM (L363 cells; Homo sapiens): 95% | activity at 10 µM [3, 5]: 72%

Cc1ccc(NC(=O)c2c(C)oc3ccc(O)c(CN4CCCCCC4)c23)c(C)c1 [Compound 3]
pIC50 (L363 cells; [6]): 5.20 | activity at 10 µM [3, 5]: 52%

Cc1ccccc1NC(=O)c1c(C)oc2ccc(O)c(CN3CCCCCC3)c12 [Compound 4]
viability at 10 µM (L363 cells; Homo sapiens): 75% | activity at 10 µM [3, 5]: 73%

Cc1ccccc1NC(=O)c1c(C)oc2ccc(O)c(CN3CCCCC3)c12 [Compound 5]
viability at 10 µM (L363 cells; Homo sapiens): 85% | activity at 10 µM [3, 5]: 89%

Cc1oc2ccc(O)c(CN3CCCCCC3)c2c1C(=O)Nc1cccc(Cl)c1C [Compound 6]
pIC50 (L363 cells; [6]): 5.31 | activity at 10 µM [3, 5]: 45%

COc1ccc(NC(=O)c2c(C)oc3ccc(O)c(CN4CCCCCC4)c23)cc1 [Compound 7]
pIC50 (L363 cells; [6]): 5.14 | activity at 10 µM [3, 5]: 81%

Cc1oc2ccc(O)c(CN3CCCCCC3)c2c1C(=O)NC1CCCCC1 [Compound 8]
activity at 10 µM [3, 5]: 76%

Cc1oc2ccc(O)c(CN3CCCC3)c2c1C(=O)Nc1ccccc1 [Compound 9]
viability at 10 µM (L363 cells; Homo sapiens): 100% | activity at 10 µM [3, 5]: 96%

CCOC(=O)c1c(-c2ccccc2)oc2ccc(O)c(CN3CCCCCC3)c12 [Compound 10]
pIC50 (L363 cells; [6]): 5.15 | activity at 10 µM [3, 5]: 37%

CCOC(=O)c1c(C)n(C)c2ccc(O)c(CN3CCC(C)CC3)c12 [Compound 11]
viability at 10 µM (L363 cells; Homo sapiens): 89% | activity at 10 µM [3, 5]: 69%

Cc1oc2ccc(O)c(CN3CCC(C)CC3)c2c1C(=O)Nc1cccc(C(F)(F)F)c1 [Compound 12]
pIC50 (L363 cells; [6]): 5.47 | Peggy (% c-Myc expression compared to untreated) [3]: 43% (at 10 μM)

Cc1oc2ccc(O)c(CN3CCCCCC3)c2c1C(=O)Nc1cccc(C(F)(F)F)c1 [Compound 13]
pIC50 (L363 cells; [6]): 5.48 | activity at 10 µM [3, 5]: 12%

Cc1ccc(NC(=O)c2c(C)oc3ccc(O)cc23)cc1 [Compound 14]
viability at 10 µM (L363 cells; Homo sapiens): 84% | activity at 10 µM [3, 5]: 106%

Cc1ccc(NC(=O)c2c(C)oc3cccc(CN4CCCCCC4)c23)cc1 [Compound 15]
viability at 10 µM (L363 cells; Homo sapiens): 53% | activity at 10 µM [3, 5]: 80%

Cc1ccc(NC(=O)c2c(C)oc3ccc(OS(=O)(=O)C(F)(F)F)c(CN4CCCCCC4)c23)cc1 [Compound 16]
viability at 10 µM (L363 cells; Homo sapiens): 70% | activity at 10 µM [3, 5]: 112%

Cc1oc2ccc(O)c(CN3CCN(C)CC3)c2c1C(=O)Nc1cccc(C(F)(F)F)c1 [Compound 17]
pIC50 (L363 cells; [6]): < 4.92 | activity at 10 µM [3, 5]: 68%

Cc1oc2ccc(O)c(CN3CCCCC3)c2c1C(=O)Nc1cccc(C(F)(F)F)c1 [Compound 18]
pIC50 (L363 cells; [6]): 5.28 | activity at 10 µM [3, 5]: 6.5%

Cc1oc2ccc(O)c(CN3CCCCC3C)c2c1C(=O)Nc1cccc(C(F)(F)F)c1 (stereo not shown) [Compound 19]
pIC50 (L363 cells; [6]): 5.42 | activity at 10 µM [3, 5]: 0.56%

Cc1oc2ccc(O)c(CN3CCC(C)CC3)c2c1C(=O)Nc1cccc(C(F)(F)F)c1 [Compound 20]
pIC50 (L363 cells; viability of L363 cells): 5.42 | Peggy (% c-Myc expression compared to untreated) [3]: 1.4% (at 10 μM)

Cc1oc2ccc(O)c(CN3CCC3)c2c1C(=O)Nc1cccc(C(F)(F)F)c1 [Compound 21]
pIC50 (L363 cells; [6]): < 4.92 | activity at 10 µM [3, 5]: 74%

Cc1oc2ccc(O)c(CN3CCC3)c2c1C(=O)Nc1ccc(C(F)(F)F)cc1 [Compound 22]
viability at 10 µM (L363 cells; Homo sapiens): 100% | activity at 10 µM [3, 5]: 27%

Cc1oc2ccc(O)c(CN3CCCC3)c2c1C(=O)Nc1cccc(C(F)(F)F)c1 [Compound 24]
pIC50 (L363 cells; [6]): 5.11 | activity at 6 µM ([3]; Homo sapiens, L-363, L363 cells, at 6 μM, read-out: Peggy (% c-Myc expression compared to untreated)): 63%

Cc1oc2ccc(O)c(CN3CCCC3)c2c1C(=O)Nc1ccc(C(F)(F)F)cc1 [Compound 25]
pIC50 (L363 cells; [6]): 5.80 | activity at 10 µM [3, 5]: 32%

Cc1oc2ccc(O)c(CN3CCC(C)CC3)c2c1C(=O)Nc1ccc(C(F)(F)F)cc1 [Compound 26]
pIC50 (L363 cells; [6]): 4.94

Cc1oc2ccc(O)c(CN3CCCC[C@@H]3C)c2c1C(=O)Nc1ccc(C(F)(F)F)cc1 [Compound 27]
pIC50 (L363 cells; [6]): 4.59

Cc1oc2ccc(O)c(CN3CCC[C@H]3C)c2c1C(=O)Nc1ccc(C(F)(F)F)cc1 [Compound 28]
pIC50 (L363 cells; [6]): 5.16

Cc1oc2ccc(O)c(CN3CCC[C@@H]3C)c2c1C(=O)Nc1ccc(C(F)(F)F)cc1 [Compound 29]
pIC50 (L363 cells; [6]): 5.35

Cc1oc2ccc(O)c(CCN3CCCCCC3)c2c1C(=O)Nc1ccc(C(F)(F)F)cc1 [Compound 30]
pIC50 (L363 cells; [6]): 4.42

Cc1oc2ccc(O)c(CCCN3CCCCCC3)c2c1C(=O)Nc1ccc(C(F)(F)F)cc1 [Compound 31]
viability at 10 µM (L363 cells; Homo sapiens): 100%

Cc1oc2ccc(O)c(CN3CC4CCC3C4)c2c1C(=O)Nc1ccc(C(F)(F)F)cc1 (stereo not shown) [Compound 32]
viability at 10 µM (L363 cells; Homo sapiens): 100%

Cc1oc2ccc(O)c(CNC3CC4CCC3C4)c2c1C(=O)Nc1ccc(C(F)(F)F)cc1 (stereo not shown) [Compound 33]
viability at 10 µM (L363 cells; Homo sapiens): 100%

Cc1oc2ccc(O)c(CNC3CC4CCC3CC4)c2c1C(=O)Nc1ccc(C(F)(F)F)cc1 (stereo not shown) [Compound 34]
pIC50 (L363 cells; [6]): 5.01

Cc1oc2ccc(O)c(CNC3CC4CCC3CC4)c2c1C(=O)Nc1ccc(C(F)(F)F)cc1 (stereo not shown) [Compound 35]
viability at 10 µM (L363 cells; Homo sapiens): 100%

CN1CCC[C@H]1CCNC(=O)c1cn2c3c(c(N4CCC(c5cnccn5)C4)c(F)cc3c1=O)Oc1cc3ccccc3cc1-2 (stereo partly shown) [Quarfloxin, reference compound]
binding (SPR) [4]: no evidence of binding

From US11014902B2, “MYC G-quadruplex stabilizing small molecules and their use” (The United States of America, as represented by the …, priority 2015, dated 2021)
